Publication PMC10987949, “Inhibition of HIV-1 release by ADAM metalloproteinase inhibitors” (Frontiers in Microbiology, 2024)

Key:
[1] = test system: ADAM9, 10 and 17 mRNA; test: RT-PCR of ADAM9, 10 and 17 mRNA in HIV-1BAL infected PBMC; assay type: cell-based, human; conditions: day 3 and 6 of infected samples
Procedure: RT-PCR using ADAM9, 10 and 17 primer probes was assayed using TaqMan primer/probe sets from ThermoFisher with a 50 ng cDNA template as described previously ([Chun et al., 2013]; [Kononchik et al., 2018]). The following TaqMan 20X Gene Expression Assay probes (Dye: FAM-MGB) were used: ADAM9 (Hs00177638_m1), ADAM10 (Hs00153853_m1), ADAM17 (Hs01041915_m1). Expression Assay standard probes (Dye: VIC-MGB) for β-Actin (Hs01060665_g1) or RNase P/RPPH1 (4403328) were used as gene expression controls. Briefly, HIV infected or uninfected cells from triplicate experiments were washed 3x in PBS and lysed for RNA isolation using RNeasy mini kit (QIAGEN corp). The corresponding cDNA samples were prepared using either TaqMan microRNA reverse transcription kit or Invitrogen High-Capacity cDNA reverse transcription kit (Thermo Fisher). Samples were run in duplicate across triplicate experiments on an ABI 7300 Real-Time PCR System (Applied Biosystems) with a threshold of 0.2. Relative gene expression was calculated using the 2^-ΔCt method and normalized to β-Actin or RNaseP as the endogenous controls. All statistical analyses were carried out using the software Prism 8 (GraphPad Software, Inc). Western blot analyses were used to detect the mature active form of ADAMs ([Pereira Vatanabe et al., 2021]). […]

[2] = test system: CD4 T cells; test: RNA sequencing of CD4 T cells, pathway gene expression; assay type: cell-based, human; conditions: compound alone
Procedure: CD4+ T cells were enriched from PBMC using EasySep™ human CD4 T cell enrichment kit ([…] Technologies Inc., MA 02142). To prepare samples for RNA sequencing, 5-10×10^6 PBMC or CD4+ T cells from either infected or uninfected samples were lysed for RNA isolation using RNeasy mini kit from QIAGEN. Samples of 2–10 μg RNA with concentration > 25 ng/μl and OD260/280 > 2.0 were used for cDNA library preparation of 250–300 base pair fragments in length, and high throughput sequencing using Illumina Miseq platform by Novogene (Novogene Corp Inc., CA 91914). A total of ~20×10^6 reads were recorded for each sample (Table 3). The mapping and assembly of raw sequencing reads, statistical and preliminary bioinformatic analyses were performed by Novogene. Subsequent gene expression analyses were performed based on expected Fragments Per Kilobase of transcript sequence per Millions base pairs sequenced (FPKM) using sequences of 20 reads or higher. All differential gene expression analyses were done between infected samples in the presence or absence of treatment and their donor matched uninfected controls. […] The RNAseq data is available in GEO database under accession number GSE218175.

[3] = molecular target: T1, recombinant HIV-1 protease (Human immunodeficiency virus type 1 group M subtype B, UniProt P04585); test: HIV-1 protease fluorogenic substrate cleavage; assay type: biochemical; conditions: 100nM saquinavir or nelfinavir; MMP inhibitors up to 10uM
T1 construct: recombinant HIV-1 protease; purchased Sigma-Aldrich SRP2151
Procedure: HIV-1 protease enzymatic activity was assayed in black 96-well plates at room temperature using a Synergy_h1 fluorescent plate reader with 340 nm excitation and 490 nm emission wavelengths (BioTek). Each enzymatic reaction consisted of a mixture of 100 ng of recombinant HIV-1 protease (Sigma-Aldrich catalog SRP2151), 5 μM concentration of a fluorogenic substrate Arg-Glu(EDANS)-[…]DABCYL)-Arg (Sigma-aldrich catalog H6660), and various concentrations of inhibitor compounds in 100 μL of assay buffer (0.15 M sodium chloride, 1.0 mM EDTA, 1.0 mM DTT, 0.1 M sodium acetate, pH 5.0). The fluorescence of the cleavage reaction was continuously read at every 30 s for a total of 40 min.

[4] = molecular target: T2, recombinant ADAM17 (Homo sapiens, UniProt P78536); test: Kinetic cleavage of fluorogenic TNF-α peptide ES003 by recombinant ADAM17; assay type: biochemical; conditions: for Ki: ES003 substrate, 4-h time point, non-linear regression, read-out: Inhibition constant Ki ADAM17
T2 construct: purchased R&D systems, Inc
T2 sequence (P78536 215-824): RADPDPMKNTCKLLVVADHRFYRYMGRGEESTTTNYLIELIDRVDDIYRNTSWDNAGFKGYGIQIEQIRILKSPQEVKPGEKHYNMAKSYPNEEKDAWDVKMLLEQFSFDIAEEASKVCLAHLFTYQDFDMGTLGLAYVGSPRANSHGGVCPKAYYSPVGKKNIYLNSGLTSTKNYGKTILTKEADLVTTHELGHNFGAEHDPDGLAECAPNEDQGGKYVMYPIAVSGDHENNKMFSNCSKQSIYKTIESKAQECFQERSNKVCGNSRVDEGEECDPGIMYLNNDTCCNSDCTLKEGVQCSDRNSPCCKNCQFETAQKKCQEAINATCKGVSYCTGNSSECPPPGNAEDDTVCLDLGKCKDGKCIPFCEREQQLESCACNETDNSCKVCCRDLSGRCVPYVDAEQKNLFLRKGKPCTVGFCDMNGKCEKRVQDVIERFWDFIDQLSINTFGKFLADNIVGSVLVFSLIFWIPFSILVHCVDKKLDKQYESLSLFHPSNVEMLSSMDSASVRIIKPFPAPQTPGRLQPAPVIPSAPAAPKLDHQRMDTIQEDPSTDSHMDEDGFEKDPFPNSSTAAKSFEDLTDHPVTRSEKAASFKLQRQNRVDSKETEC
From the text: A fluorescence based enzymatic assay was used to measure the cleavage of fluorogenic TNF-α and L-selectin (CD62L) peptides by either recombinant ADAMs or PBMC from healthy donors. The fluorogenic substrate, synthesized by Biomatik^3, was a Dabcyl (4-(4-dimethylaminophenylazo)benzoyl)- and Edans (5-[(2-aminoethyl)amino]naphthalene-1-sulfonic acid)- conjugated 12 amino acid peptide: Dabcyl-[…]-Edans that corresponds to the extracellular membrane proximal region of CD62L. […] The cleavage was measured in a kinetic assay every 3 min for 4 h in black 96-well plates using a Synergy_h1 fluorescent plate reader (BioTek) with 340 nm excitation and 490 nm emission wavelengths. […] PBMC were stimulated with anti-CD3 antibody for 2–4 days as described above.
96-well plate with data recorded every 3 minutes for 4 hours using a Synergy_h1 fluorescent plate reader. Each enzymatic reaction contained 50 -200 ng
Figure 2B and 2C bar diagrams are generated using the
data points at 4 hour time point of the enzymatic cleavages.

SMILES | HIV-1BAL induced increase of ADAM9, 10, 17 mRNA [1] | transcription of type I interferon pathway genes ([2]; uninfected CD4 T cells) | expressions of cell cycle genes ([2]; without HIV-1 infection) | effect on HIV protease cleavage of fluorogenic substrate [3] | Ki [4] | concentrations inhibiting ADAM17 enzymatic activity [4] | inhibition of ADAM17 cleavage of ES003 ([4]; 2 μM compound)
CNC(=O)[C@H](Cc1ccccc1)NC(=O)[C@H](CC(C)C)[C@H](CSc1cccs1)C(=O)NO [BB-94, Batimastat] | increase was not observed | does not suppress the transcription of type I interferon pathway genes | decreased slightly the expressions of cell cycle genes | none of the MMP inhibitors, including BB-94, prinomastat, GM6001 and DMDP, inhibited the activity of HIV protease | – | – | –
CNC(=O)[C@@H](NC(=O)[C@H](CCCc1ccccc1)[C@H](C)N(O)C=O)C(C)(C)C [GI254023X] | – | – | – | – | 3600 ± 380 nM | – | –
CC1(C)SCCN(S(=O)(=O)c2ccc(Oc3ccncc3)cc2)[C@H]1C(=O)NO [prinomastat] | – | – | – | none of the MMP inhibitors, including BB-94, prinomastat, GM6001 and DMDP, inhibited the activity of HIV protease | 48 ± 36 nM | 20 to 50 nM | inhibited both ADAM10 and 17
